In ChEMBL document CHEMBL3351578, “Discovery and pharmacological profile of new hydrophilic 5-HT(4) receptor antagonists” (Bioorg Med Chem Lett, 2014):

How the values were obtained:
[1] = molecular target: T1, 5-hydroxytryptamine receptor 4 (Homo sapiens, UniProt Q13639); test: Displacement of [3H]GR113808 from human 5HT4b receptor expressed in HEK293 cell membranes
[2] = molecular target: T1, 5-hydroxytryptamine receptor 4; test: Antagonist activity against human 5HT4b receptor expressed in HEK293 cells assessed as reduction in 5-HT-stimulated adenylyl cyclase activity; assay type: functional, cell-based
[3] = Lipophilicity, log D of the compound at pH 7.4; assay type: physicochemical; details: buffer
[4] = molecular target: Voltage-gated inwardly rectifying potassium channel KCNH2 (Homo sapiens, UniProt Q12809); test: Inhibition of human ERG expressed in HEK293 cells assessed as reduction in channel tail current by patch clamp method; assay type: cell-based
[5] = Elimination half life in Sprague-Dawley rat at 10 mg/kg, po or 1 mg/kg, iv after 30 mins to 6 hrs by LC/MS/MS method; assay type: ADME, organism-based; details: in vivo, read-out: beta t1/2
[6] = Tmax in Sprague-Dawley rat at 10 mg/kg, po or 1 mg/kg, iv after 30 mins to 6 hrs by LC/MS/MS method; assay type: ADME, organism-based; details: in vivo
[7] = Oral bioavailability in Sprague-Dawley rat at 10 mg/kg after 30 mins to 6 hrs by LC/MS/MS method; assay type: ADME, organism-based; details: in vivo

T1 sequence (Q13639 whole entry): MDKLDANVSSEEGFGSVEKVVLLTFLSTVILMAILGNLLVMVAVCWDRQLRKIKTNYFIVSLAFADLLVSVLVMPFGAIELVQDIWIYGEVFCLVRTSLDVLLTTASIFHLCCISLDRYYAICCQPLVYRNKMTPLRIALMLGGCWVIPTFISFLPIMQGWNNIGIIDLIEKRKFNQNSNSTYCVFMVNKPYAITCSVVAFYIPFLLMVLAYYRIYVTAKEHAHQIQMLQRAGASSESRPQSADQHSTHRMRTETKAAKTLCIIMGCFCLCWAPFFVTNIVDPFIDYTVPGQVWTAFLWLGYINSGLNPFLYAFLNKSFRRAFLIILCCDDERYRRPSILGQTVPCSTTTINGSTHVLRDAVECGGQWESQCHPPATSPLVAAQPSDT
Sequence of Voltage-gated inwardly rectifying potassium channel KCNH2 (Q12809 whole entry): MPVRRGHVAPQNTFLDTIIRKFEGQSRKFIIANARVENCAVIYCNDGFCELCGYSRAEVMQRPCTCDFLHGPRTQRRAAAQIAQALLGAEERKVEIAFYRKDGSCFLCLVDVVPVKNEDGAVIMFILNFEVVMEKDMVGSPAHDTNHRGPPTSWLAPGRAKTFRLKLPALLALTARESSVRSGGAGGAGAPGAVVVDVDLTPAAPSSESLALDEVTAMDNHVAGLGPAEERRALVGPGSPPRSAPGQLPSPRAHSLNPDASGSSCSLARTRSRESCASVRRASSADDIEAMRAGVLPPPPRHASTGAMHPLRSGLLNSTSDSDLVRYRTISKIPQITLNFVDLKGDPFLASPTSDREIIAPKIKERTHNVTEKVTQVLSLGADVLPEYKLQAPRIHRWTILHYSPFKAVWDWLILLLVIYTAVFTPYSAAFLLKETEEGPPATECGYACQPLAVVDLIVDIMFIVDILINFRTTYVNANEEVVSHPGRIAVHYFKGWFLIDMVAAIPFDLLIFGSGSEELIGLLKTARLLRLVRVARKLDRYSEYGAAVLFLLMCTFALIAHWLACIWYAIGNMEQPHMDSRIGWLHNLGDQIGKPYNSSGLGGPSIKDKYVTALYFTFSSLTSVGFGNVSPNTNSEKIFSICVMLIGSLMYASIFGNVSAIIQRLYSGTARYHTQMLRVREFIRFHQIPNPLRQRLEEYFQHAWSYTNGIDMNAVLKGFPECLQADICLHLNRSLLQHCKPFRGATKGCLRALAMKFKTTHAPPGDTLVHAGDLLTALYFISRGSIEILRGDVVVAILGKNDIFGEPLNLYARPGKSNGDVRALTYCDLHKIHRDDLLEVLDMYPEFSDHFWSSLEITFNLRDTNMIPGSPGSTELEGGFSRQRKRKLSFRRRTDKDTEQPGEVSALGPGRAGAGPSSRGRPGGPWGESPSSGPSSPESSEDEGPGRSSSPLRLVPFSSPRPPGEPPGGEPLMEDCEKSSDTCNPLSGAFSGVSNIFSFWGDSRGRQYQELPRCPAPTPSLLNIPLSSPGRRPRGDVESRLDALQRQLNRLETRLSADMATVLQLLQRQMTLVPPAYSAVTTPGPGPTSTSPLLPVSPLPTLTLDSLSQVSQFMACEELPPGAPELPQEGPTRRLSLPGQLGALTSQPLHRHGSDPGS

Row | SMILES | Ki [1] | pKb [2] | logD [3] | IC50 [4] | half-life [5] | Tmax [6] | bioavailability [7]
1 | CCCCN1CCC(CNC(=O)c2c3n(c4ccccc24)CCCO3)CC1 [PIBOSEROD] | 0.398 nM | 10.5 |  |  |  |  | 
2 | O=C(OCC1CCN(CC2C3CC4C2C4C3C(=O)O)CC1)c1c2n(c3ccccc13)CCCO2 (stereo not given) | 1.58 nM | 8.4 | 0.7 |  |  |  | 
3 | O=C(NCC1CCN(Cc2ccc(NS(=O)(=O)C3CCCCC3)cc2)CC1)c1c2n(c3ccccc13)CCCO2 | 0.2 nM | 8 | 2.7 |  |  |  | 
4 | O=C(NCC1CCN(Cc2ccc(NS(=O)(=O)C3CCCCC3)cc2)CC1)c1cccc2c1OCCO2 | 1.26 nM | 7.6 | 2.5 |  |  |  | 
5 | O=C(NCC1CCN(Cc2ccc(NS(=O)(=O)Cc3ccccc3)cc2)CC1)c1c[nH]c2ccccc12 | 1000 nM |  | 1.2 |  |  |  | 
6 | CC(C)CS(=O)(=O)Nc1ccc(CN2CCC(CNC(=O)c3cccc4c3OCCO4)CC2)cc1 | 0.2 nM | 8 | 1.8 |  |  |  | 
7 | CS(=O)(=O)Nc1ccc(CN2CCC(CNC(=O)c3cccc4c3OCCO4)CC2)cc1 | 0.2 nM | 8.3 | 0.5 |  |  |  | 
8 | CCCCS(=O)(=O)Nc1ccc(CN2CCC(CNC(=O)c3cccc4c3OCCO4)CC2)cc1 | 0.251 nM | 8 | 1.8 |  |  |  | 
9 | O=C(NCC1CCN(Cc2ccc(NS(=O)(=O)C3CCCCC3)cc2)CC1)c1c[nH]c2ccccc12 | 501 nM |  | 0.5 |  |  |  | 
10 | Cn1cc(C(=O)OCC2CCN(CCNS(C)(=O)=O)CC2)c2ccccc21 |  | 10.1 |  |  |  |  | 
11 | CS(=O)(=O)Nc1ccc(CN2CCC(CNC(=O)c3c4n(c5ccccc35)CCCO4)CC2)cc1 | 0.2 nM | 8.3 | 1 |  |  |  | 
12 | CC(C(=O)O)c1ccc(CN2CCC(COC(=O)c3c4n(c5ccccc35)CCCO4)CC2)cc1 (stereo not given) | 0.316 nM | 8.8 | 1.1 | 25000 nM |  |  | 
13 | CC(C)CS(=O)(=O)Nc1ccc(CN2CCC(CNC(=O)c3c4n(c5ccccc35)CCCO4)CC2)cc1 | 0.0501 nM | 9.7 | 2.2 |  |  |  | 
14 | CCCCS(=O)(=O)Nc1ccc(CN2CCC(CNC(=O)c3c4n(c5ccccc35)CCCO4)CC2)cc1 | 1 nM | 9.7 | 2.2 |  |  |  | 
15 | O=C(OCC1CCN(CC(O)CO)CC1)c1c2n(c3ccccc13)CCCO2 (stereo not given) | 0.0794 nM | 9.1 | 0.2 | 81000 nM | 2.5 h | 2.42 h | 10.3%
